In publication PMC9090415, “Discovery of small molecule inhibitors of Plasmodium falciparum apicoplast DNA polymerase” (Journal of Enzyme Inhibition and Medicinal Chemistry, 2022):

Target: P. falciparum apicoplast DNA polymerase (Pf-apPOL) (Plasmodium falciparum, UniProt Q8ILY1)
Test: Fluorescence-based high-throughput DNA polymerase assay (molecular beacon), primary screen and dose-response
Format: biochemical
Method in brief: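 Single-point screening used 10 µM compound with 20 nM polymerase, 20 nM hairpin substrate and 6 µM dNTPs for 90 min at 25 °C. Confirmatory titrations (2.5–80 µM) followed fluorescence at three times, and IC50 was derived from a fit including a cooperativity term n.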

[1] = supplemental file 2, sheet IC50 nontoxic compounds; Pf-apPOL

Chain of P. falciparum apicoplast DNA polymerase (Pf-apPOL) (Q8ILY1 entry or part of it): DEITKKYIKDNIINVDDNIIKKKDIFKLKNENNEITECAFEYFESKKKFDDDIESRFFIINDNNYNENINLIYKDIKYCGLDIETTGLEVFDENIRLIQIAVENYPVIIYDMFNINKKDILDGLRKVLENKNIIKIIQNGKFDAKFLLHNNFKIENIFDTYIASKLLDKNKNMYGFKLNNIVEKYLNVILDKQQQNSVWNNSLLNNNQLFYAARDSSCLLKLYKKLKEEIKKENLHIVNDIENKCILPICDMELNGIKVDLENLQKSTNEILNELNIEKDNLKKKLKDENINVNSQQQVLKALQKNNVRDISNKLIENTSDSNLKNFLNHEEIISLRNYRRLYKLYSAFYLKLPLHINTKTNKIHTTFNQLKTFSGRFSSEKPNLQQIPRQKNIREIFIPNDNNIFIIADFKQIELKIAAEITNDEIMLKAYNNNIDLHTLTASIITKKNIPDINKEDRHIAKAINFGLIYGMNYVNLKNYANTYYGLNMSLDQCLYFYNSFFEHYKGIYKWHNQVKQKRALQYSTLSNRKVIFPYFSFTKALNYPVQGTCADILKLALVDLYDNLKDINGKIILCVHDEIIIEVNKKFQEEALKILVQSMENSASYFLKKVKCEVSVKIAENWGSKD

SMILES: COc1ccc(NC(=O)Cn2nc3c(cc2=O)CCC3)cc1Cl [Molecule 4, COc1ccc(cc1Cl)NC(=O)Cn1nc2CCCc2cc1=O]
- % inhibition Apo pol 10' (DRC-1; concentration 2.5; 10'): -1.67%
- % inhibition Apol 90' (DRC-1; concentration 2.5; 90'): -5%
- % inhibition apPOL 180' (DRC-1; concentration 2.5; 180'): -9%
- % inhibition Apo pol 10' (DRC-1; concentration 5; 10'): 44%
- % inhibition Apol 90' (DRC-1; concentration 5; 90'): 29%
- % inhibition apPOL 180' (DRC-1; concentration 5; 180'): 17%
- % inhibition Apo pol 10' (DRC-1; concentration 10; 10'): 88%
- % inhibition Apol 90' (DRC-1; concentration 10; 90'): 78%
- % inhibition apPOL 180' (DRC-1; concentration 10; 180'): 66%
- % inhibition Apo pol 10' (DRC-1; concentration 20; 10'): 94%
- % inhibition Apol 90' (DRC-1; concentration 20; 90'): 90%
- % inhibition apPOL 180' (DRC-1; concentration 20; 180'): 86%
- % inhibition Apo pol 10' (DRC-1; concentration 40; 10'): 93%
- % inhibition Apol 90' (DRC-1; concentration 40; 90'): 92%
- % inhibition apPOL 180' (DRC-1; concentration 40; 180'): 91%
- % inhibition Apo pol 10' (DRC-1; concentration 80 (unit not given); 10'): 89%
- % inhibition Apol 90' (DRC-1; concentration 80; 90'): 90%
- % inhibition apPOL 180' (DRC-1; concentration 80; 180'): 91%
- % inhibition Apol 40' (DRC-2; 40'; concentration 10): 69%
- % inhibition Apol 40' (DRC-2; 40'; concentration 20): 69%
- % inhibition ApPOL 90' (DRC-2; 90'; concentration 10): 71%
- % inhibition ApPOL 90' (DRC-2; 90'; concentration 80): 71%
- % inhibition apPOL 180' (DRC-2; 180'; concentration 5): 44%
- % inhibition apPOL 180' (DRC-2; 180'; concentration 10): 69%
- % inhibition apPOL 180' (DRC-2; 180'; concentration 40): 78%
- % inhibition Apo pol 5' (DRC-2; concentration 2.5; 5'): 19%
- % inhibition Apol 40' (DRC-2; concentration 2.5; 40'): 18%
- % inhibition ApPOL 90' (DRC-2; concentration 2.5; 90'): 16%
- % inhibition apPOL 180' (DRC-2; concentration 2.5; 180'): 8%
- % inhibition Apo pol 5' (DRC-2; concentration 5; 5'): 46%
- % inhibition Apol 40' (DRC-2; concentration 5; 40'): 55%
- % inhibition ApPOL 90' (DRC-2; concentration 5; 90'): 54%
- % inhibition apPOL 180' (DRC-2; concentration 5; 180'): 44%
- % inhibition Apo pol 5' (DRC-2; concentration 10; 5'): 52%
- % inhibition Apol 40' (DRC-2; concentration 10; 40'): 69%
- % inhibition ApPOL 90' (DRC-2; concentration 10; 90'): 71%
- % inhibition apPOL 180' (DRC-2; concentration 10; 180'): 69%
- % inhibition Apo pol 5' (DRC-2; concentration 20; 5'): 49%
- % inhibition Apol 40' (DRC-2; concentration 20; 40'): 69%
- % inhibition ApPOL 90' (DRC-2; concentration 20; 90'): 73%
- % inhibition apPOL 180' (DRC-2; concentration 20; 180'): 75%
- % inhibition Apo pol 5' (DRC-2; concentration 40; 5'): 50%
- % inhibition Apol 40' (DRC-2; concentration 40; 40'): 70%
- % inhibition ApPOL 90' (DRC-2; concentration 40; 90'): 74%
- % inhibition apPOL 180' (DRC-2; concentration 40; 180'): 78%
- % inhibition Apo pol 5' (DRC-2; concentration 80; 5'): 43%
- % inhibition Apol 40' (DRC-2; concentration 80; 40'): 65%
- % inhibition ApPOL 90' (DRC-2; concentration 80; 90'): 71%
- % inhibition apPOL 180' (DRC-2; concentration 80; 180'): 76%
- % inhibition Apo pol 10' (first dose-response set; 10'; concentration 5): 44%
- % inhibition Apol 90' (first dose-response set; 90'; concentration 10): 78%
- % inhibition Apol 90' (first dose-response set; 90'; concentration 20): 90%
- % inhibition Apol 90' (first dose-response set; 90'; concentration 80): 90%
- % inhibition apPOL 180' (first dose-response set; 180'; concentration 40): 91%
- % inhibition apPOL 180' (first dose-response set; 180'; concentration 80): 91%
- DNA Pol (primary screen value of the 186 hits; unit not given; 90 min, 10 µM): 45
- DNA Pol (primary screen value; head prints only 'DNA Pol'; 90 min, 10 µM): 45

SMILES: COc1ccc(NC(=O)Cn2nc3c(cc2=O)CCC3)cc1Cl [Molecule 4]
- IC50 [1]: 5.29 µM

SMILES: COc1ccc(/C=C/c2cc(C(=O)O)c3ccccc3n2)cc1 [Molecule 5]
- IC50 [1]: 3.86 µM

SMILES: Cc1ccc(C)c(CSc2nc(C3CCCCC3)c(C#N)c(=O)[nH]2)c1 [Molecule 6, N#Cc1c(=O)[nH]c(nc1C1CCCCC1)SCc1cc(C)ccc1C]
- DNA Pol ('DNA Pol' of the 186 hits list (primary screen result); unit not given; 90 min, 10 µM): 98
- % inhibition Apo pol 10' (DRC-1; 10'; concentration 2.5): 19.6577%
- % inhibition Apo pol 10' (DRC-1; 10'; concentration 5): 38.2184%
- % inhibition Apo pol 10' (DRC-1; 10'; concentration 10): 71.2419%
- % inhibition Apo pol 10' (DRC-1; 10'; concentration 20): 88.8023%
- % inhibition Apo pol 10' (DRC-1; 10'; concentration 40): 92.9931%
- % inhibition Apo pol 10' (DRC-1; 10'; concentration 80): 97.5171%
- % inhibition Apol 90' (DRC-1; 90'; concentration 2.5): 7.563%
- % inhibition Apol 90' (DRC-1; 90'; concentration 5): 29.5473%
- % inhibition Apol 90' (DRC-1; 90'; concentration 10): 66.2339%
- % inhibition Apol 90' (DRC-1; 90'; concentration 20): 83.4926%
- % inhibition Apol 90' (DRC-1; 90'; concentration 40): 89.6774%
- % inhibition Apol 90' (DRC-1; 90'; concentration 80): 97.7776%
- % inhibition apPOL 180' (DRC-1; 180'; concentration 2.5): -0.2009%
- % inhibition apPOL 180' (DRC-1; 180'; concentration 5): 17.3135%
- % inhibition apPOL 180' (DRC-1; 180'; concentration 10): 54.7895%
- % inhibition apPOL 180' (DRC-1; 180'; concentration 20): 77.2836%
- % inhibition apPOL 180' (DRC-1; 180'; concentration 40): 85.5131%
- % inhibition apPOL 180' (DRC-1; 180'; concentration 80): 97.5591%
- % inhibition Apol 40' (DRC-2, 40', concentration 2.5 (unit not given)): 13%
- % inhibition ApPOL 90' (DRC-2, 90', concentration 40 (unit not given)): 80%
- % inhibition apPOL 180' (DRC-2, 180', concentration 5 (unit not given)): 10%
- % inhibition apPOL 180' (DRC-2, 180', concentration 40 (unit not given)): 80%
- % inhibition apPOL 180' (DRC-2, 180', concentration 80 (unit not given)): 80%
- % inhibition Apo pol 5' (DRC-2; 5'; concentration 2.5): 9%
- % inhibition Apo pol 5' (DRC-2; 5'; concentration 5): 13%
- % inhibition Apo pol 5' (DRC-2; 5'; concentration 5 (unit not given)): 13%
- % inhibition Apo pol 5' (DRC-2; 5'; concentration 20): 59%
- % inhibition Apo pol 5' (DRC-2; 5'; concentration 40): 63%
- % inhibition Apo pol 5' (DRC-2; 5'; concentration 80): 61%
- % inhibition Apol 40' (DRC-2; 40'; concentration 2.5): 13%
- % inhibition Apol 40' (DRC-2; 40'; concentration 5): 18%
- % inhibition Apol 40' (DRC-2; 40'; concentration 10): 51%
- % inhibition Apol 40' (DRC-2; 40'; concentration 20): 69%
- % inhibition Apol 40' (DRC-2; 40'; concentration 40): 77%
- % inhibition Apol 40' (DRC-2; 40'; concentration 80): 75%
- % inhibition ApPOL 90' (DRC-2; 90'; concentration 2.5): 10%
- % inhibition ApPOL 90' (DRC-2; 90'; concentration 2.5 (unit not given)): 10%
- % inhibition ApPOL 90' (DRC-2; 90'; concentration 5): 16%
- % inhibition ApPOL 90' (DRC-2; 90'; concentration 10): 50%
- % inhibition ApPOL 90' (DRC-2; 90'; concentration 20): 71%
- % inhibition ApPOL 90' (DRC-2; 90'; concentration 40): 80%
- % inhibition ApPOL 90' (DRC-2; 90'; concentration 80): 78%
- % inhibition apPOL 180' (DRC-2; 180'; concentration 2.5): 5.53%
- % inhibition apPOL 180' (DRC-2; 180'; concentration 5): 10%
- % inhibition apPOL 180' (DRC-2; 180'; concentration 20): 67%
- % inhibition apPOL 180' (DRC-2; 180'; concentration 40): 80%
- % inhibition apPOL 180' (DRC-2; 180'; concentration 80): 80%
- DNA Pol (primary screen value of the library well; unit not given; 90 min, 10 µM): 98

SMILES: Cc1ccc(C)c(CSc2nc(C3CCCCC3)c(C#N)c(=O)[nH]2)c1 [Molecule 6]
- IC50 [1]: 6.42 µM
